System: facial skin vasodilation induced by electrical trigeminal ganglion stimulation
Experiment: Measurement of facial skin blood flow (vasodilation induced by electrical trigeminal ganglion stimulation, laser Doppler flowmetry)
Assay type: in vivo, rat
Conditions: for % of trigeminus stimulation: anaesthetized male wistar rats
Description: Facial skin blood flow was measured by a modified method described by Escott et al. ([…]., Connor, H. E., Brain, S. D. (1995), Trigeminal ganglion stimulation increases facial skin blood flow in the rat a major role for calcitonin gene-related peptide, Brain Research, 669(1), 93-99). Fasted male wistar rats (strain CHbb:THOM, 280-320g) were anaesthetized with sodium pentobarbitone (initially with 60 mg/kg i.p. and maintained throughout the experiment with an intraperitoneal infusion of 30 mg/kg/h through a 23 G needle using a solution of 10 mg/ml). Both sides of the buccal area of the facial skin were shaved and depilated with a commercial depilatory […], Germany). The trachea was cannulated and the animals were artificially respired (80 strokes/min) with room air supplemented with oxygen. The body temperature was maintained at 37°C by an automated heating pad. The left femoral artery and the left femoral vein were cannulated for the continuous measurement of arterial blood pressure and intravenous administration of test compounds, respectively. […] Heart rate was derived from the blood pressure signal. Blood pressure and heart rate were continuously monitored throughout the course of the experiment to assess the level of anaesthesia and to monitor the cardiovascular effects of the drugs used in this study. The animals were placed in a stereotaxic frame and a longitudinal incision was made in the scalp. […] The position of the electrodes in the trigeminal ganglia were checked visually at the end of each experiment following removal of the brain. The trigeminal ganglion was stimulated at 10 Hz, 1 mA, 1 msec for 30 seconds using a stimulator supplied by Hugo Sachs Elektronik (79232 March-Hugstetten, Germany). Microvascular blood flow changes in the facial skin were measured by Laser Doppler flowmetry with a Periflux laser doppler system (PeriFLUX 4001, wave length […]; time constant 3 s, Perimed AB, Järfälla, S-17526, Sweden). Standard laser doppler probes (PROBE 408) were positioned on either side of the face approximately 0.5 cm below the centre of the eye, an area innervated by the maxillary branch (V2) of the trigeminal nerve. Blood flow changes were measured as flux in arbitrary units and expressed as area under the flux curve (mm^2) according to Escott et al. (1995). […] The first stimulation was used as a control for the subsequent stimulations.

With `NCCCC[C@H](NC(=O)[C@@H](Cc1cc(Br)c(O)c(Br)c1)NC(=O)N1CCC(N2Cc3ccccc3NC2=O)CC1)C(=O)N1CCN(c2ccncc2)CC1` [BIBN 4096 BS, 1-[N^2-[3,5-Dibromo-N-[[4-(3,4-dihydro-2(1H)-oxochinazolin-3-yl)-1-piperidinyl]-carbonyl]-D-tyrosyl]-L-lysyl]-4-(4-pyridinyl)-piperazine] the “% of trigeminus stimulation” value (BIBN 4096 BS 0.03 mg/kg intravenously 5 min prior to second stimulation, mean ± spread) was 60.3 ± 5.1% and the “% inhibition compared to control value” (BIBN 4096 BS 0.03 mg/kg intravenously 5 min prior to second stimulation, versus saline control) was 27.1%.
`CN1C[C@H](C(=O)N[C@]2(C)O[C@@]3(O)[C@@H]4CCCN4C(=O)[C@H](Cc4ccccc4)N3C2=O)C[C@@H]2c3cccc4[nH]cc(c34)C[C@H]21` [DHE, Dihydroergotamin] was tested, and the “% inhibition compared to control value” (rat, in vivo) was 27.0%.
With `CNS(=O)(=O)Cc1ccc2[nH]cc(CCN(C)C)c2c1` [Sumatriptan, sumatriptan] the “% of trigeminus stimulation” value (Sumatriptan 1.0 mg/kg intravenously 5 min prior to second stimulation) was 68.8 ± 6.8% and the “% inhibition compared to control value” (Sumatriptan 1.0 mg/kg intravenously 5 min prior to second stimulation, versus saline control) was 16.8%.
`CN(C)CCc1c[nH]c2ccc(C[C@H]3COC(=O)N3)cc12` [Zolmitriptan, zolmitriptan] was tested, and the “% of trigeminus stimulation” value (Zolmitriptan 0.1 mg/kg intravenously 5 min prior to second stimulation) was 55.6 ± 4.8% and the “% inhibition compared to control value” (Zolmitriptan 0.1 mg/kg intravenously 5 min prior to second stimulation, versus saline control) was 32.8%.

Source: patent EP1420790B1, “USE OF BIBN4096 IN COMBINATION WITH OTHER ANTIMIGRAINE DRUGS FOR THE TREATMENT OF MIGRAINE” (Boehringer Ingelheim Pharma GmbH & Co.KG, priority 2001, dated 2003)
